Measurements taken from ChEMBL document CHEMBL1201862, “PubChem BioAssay data set” (2004).
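Method: 48-hour compound exposure of cells in 96-well plates, five concentrations, linear interpolation of endpoints. At the GI50, growth is halved.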 The source made the active and inactive calls. Cut-off read from the data, not from the text of the source: active = GI50 up to about 1.1 µM and inactive = higher.

Columns and labels:
Assay in all cases: DTP human tumour cell line panel, 48 h
SNB-75 = system: SNB-75
HOP-62 = system: HOP-62
COLO 205 = system: COLO 205
SF-268 = system: SF-268
SK-MEL-2 = system: SK-MEL-2
CAKI-1 = system: CAKI-1
SN12C = system: SN12C
OVCAR-5 = system: OVCAR-5
SF-295 = system: SF-295
NCI-H23 = system: NCI-H23
MOLT-4 = system: MOLT-4
M14 = system: M14
HOP-92 = system: HOP-92
SNB-19 = system: SNB-19
NCI-H522 = system: NCI-H522
K562 = system: K562
SW-620 = system: SW-620
SF-539 = system: SF-539
Malme-3M = system: Malme-3M
NCI-H226 = system: NCI-H226

Row | Compound | GI50 (SNB-75) | GI50 (HOP-62) | GI50 (COLO 205) | GI50 (SF-268) | GI50 (SK-MEL-2) | GI50 (CAKI-1) | GI50 (SN12C) | GI50 (OVCAR-5) | GI50 (SF-295) | GI50 (NCI-H23) | GI50 (MOLT-4) | GI50 (M14) | GI50 (HOP-92) | GI50 (SNB-19) | GI50 (NCI-H522) | GI50 (K562) | GI50 (SW-620) | GI50 (SF-539) | GI50 (Malme-3M) | GI50 (NCI-H226)
1 | CCN1CCC(O)(/C=C/c2ccc(C)cc2)C(C(=O)/C=C/c2ccc(C)cc2)C1 (configuration not stated) | 9.79 µM (inactive) | 12.5 µM (inactive) | 1.75 µM (inactive) | 9.57 µM (inactive) | 3.75 µM (inactive) | 2.78 µM (inactive) | 7.69 µM (inactive) | 10.5 µM (inactive) | 10.6 µM (inactive) | 6.35 µM (inactive) | 1.63 µM (inactive) | 2.83 µM (inactive) | 6.81 µM (inactive) | 9.42 µM (inactive) | 1.7 µM (inactive) | 2.36 µM (inactive) | 1.75 µM (inactive) | 3.61 µM (inactive) | 6.75 µM (inactive) | 15.5 µM (inactive)
2 | C/C(=C1\N=C(c2ccccc2)OC1=O)c1ccccc1 | 0.611 µM (active) | > 100 µM (inactive) | > 100 µM (inactive) | > 100 µM (inactive) | > 100 µM (inactive) | > 100 µM (inactive) |  | > 100 µM (inactive) | > 100 µM (inactive) | > 100 µM (inactive) | > 100 µM (inactive) | > 100 µM (inactive) | > 100 µM (inactive) | > 100 µM (inactive) | > 100 µM (inactive) | > 100 µM (inactive) | > 100 µM (inactive) | > 100 µM (inactive) | > 100 µM (inactive) | > 100 µM (inactive)
3 | CC1[C@@H]2CC=C3C4CCC5Cc6nc7c(nc6C[C@@]5(C)C4CC(=O)[C@]32CO[C@@]1(O)C(O)CC(C)(C)O)CC1CCC2C3=C[C@H]4O[C@@]5(O[C@@](C)(CO)C[C@@H]5O)C(C)[C@@]4(O)[C@]3(C)[C@@H](O)CC2[C@]1(C)C7 (some centres not stated) | < 0.00036 µM (active) | 0.000495 µM (active) | 0.015 µM (active) | 0.00676 µM (active) | 0.00775 µM (active) | 0.0132 µM (active) | 0.274 µM (active) | 0.00773 µM (active) | < 0.00036 µM (active) | 0.00308 µM (active) | 0.00157 µM (active) |  | 0.0041 µM (active) | 0.0366 µM (active) | 0.0455 µM (active) | 0.0112 µM (active) | 0.00933 µM (active) | 0.00201 µM (active) | 0.0166 µM (active) | 0.00622 µM (active)
4 | C=CCNC(=O)N(CCC)CCCCC(NC(C)=O)C(=O)NCc1ccccc1 (configuration not stated) | > 100 µM (inactive) | > 100 µM (inactive) | > 100 µM (inactive) | > 100 µM (inactive) | > 100 µM (inactive) | > 100 µM (inactive) | > 100 µM (inactive) | > 100 µM (inactive) | > 100 µM (inactive) | > 100 µM (inactive) | > 100 µM (inactive) | > 100 µM (inactive) | > 100 µM (inactive) | > 100 µM (inactive) | > 100 µM (inactive) | > 100 µM (inactive) | > 100 µM (inactive) | > 100 µM (inactive) | > 100 µM (inactive) | > 100 µM (inactive)
5 | C=CC(=O)NC(O)(C(=O)OCC)C(F)(F)F (configuration not stated) | > 100 µM (inactive) | > 100 µM (inactive) | > 100 µM (inactive) | > 100 µM (inactive) | > 100 µM (inactive) | > 100 µM (inactive) | > 100 µM (inactive) | > 100 µM (inactive) | > 100 µM (inactive) | > 100 µM (inactive) | > 100 µM (inactive) | > 100 µM (inactive) | > 100 µM (inactive) | > 100 µM (inactive) | > 100 µM (inactive) | > 100 µM (inactive) | > 100 µM (inactive) | > 100 µM (inactive) | > 100 µM (inactive) | > 100 µM (inactive)
6 | Cc1ccc(NC(=S)NNC(=O)c2cc(-c3ccccc3)nc3ccccc23)cc1C | 16.3 µM (inactive) | 22 µM (inactive) | 16.6 µM (inactive) | 29.4 µM (inactive) | 18.6 µM (inactive) | 59.7 µM (inactive) | 17.6 µM (inactive) | 26.8 µM (inactive) | 12.9 µM (inactive) | 19.3 µM (inactive) | 20.8 µM (inactive) | 15.5 µM (inactive) | 18.6 µM (inactive) | 32 µM (inactive) | 22.5 µM (inactive) | 33 µM (inactive) | 31.5 µM (inactive) | 21.2 µM (inactive) | 20 µM (inactive) | 34.8 µM (inactive)
7 | CC(=O)[C@H]1CCC2[C@@H]3CC=C4C(O)C(OS(=O)(=O)O)CC[C@]4(C)C3CC[C@@]21C (some centres not stated) | > 100 µM (inactive) | > 100 µM (inactive) | > 100 µM (inactive) | > 100 µM (inactive) | > 100 µM (inactive) | > 100 µM (inactive) | > 100 µM (inactive) | > 100 µM (inactive) | > 100 µM (inactive) | > 100 µM (inactive) | > 100 µM (inactive) |  | > 100 µM (inactive) | > 100 µM (inactive) | > 100 µM (inactive) | > 100 µM (inactive) | > 100 µM (inactive) | > 100 µM (inactive) | > 100 µM (inactive) | > 100 µM (inactive)
